{"source": "patent US20240383882A1", "about": "(Ecstasy LLC, priority 2020, published 2024)", "data": [{"test_system": "male C57BL/6 mice", "experiment": "55° C. warm-water tail-flick test (antinociception)", "type": "in vivo", "conditions": "Mus musculus, sc, 0.5 h, compounds of Table I; s.c.; 30 min; 55° C. water; configuration tested as in Table II; read-out: ED50 (mg/kg) at 30 min on C57BL/6 mice in Warm-water Tail-flick Test", "how_it_was_run": "(§1)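 Mice with baseline tail-flick latency within 2 s at 55° C received compound s.c. and were retested at 30, 60, 90 and 120 min. % antinociception = 100×(test−control latency)/(20−control latency); ED50 in mg/kg.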", "units": {"ED50": "mg/kg"}, "values": [{"smiles": "Cc1ccc(C(C)(C)N2CCC(CCc3ccc(F)s3)(c3ncc(C(C)(C)C)[nH]3)C2)cn1", "note": "(single isomer, unassigned) [Compound 282]", "ED50": "≤ 30"}, {"smiles": "Cc1ccc(C(C)(C)N2CCC(CCc3ccc(F)s3)(CNS(C)(=O)=O)C2)cn1", "note": "(single isomer, unassigned) [Compound 313]", "ED50": "≤ 30"}, {"smiles": "Cc1ccc(C(C)(C)N2CCC(CCc3ccc(F)s3)(C(NS(C)(=O)=O)c3ccccn3)C2)cn1", "note": "(single isomer, unassigned) [Compound 319]", "ED50": "≤ 30"}, {"smiles": "Cc1ccc(C(C)(C)N2CCC(CCc3ccc(F)s3)(CNS(=O)(=O)C(C)C)C2)cn1", "note": "(single isomer, unassigned) [Compound 320]", "ED50": "≤ 30"}, {"smiles": "Cc1ccc(S(=O)(=O)NC(c2ccccn2)C2(CCc3ccc(F)s3)CCN(C(C)(C)c3ccc(C)nc3)C2)cc1", "note": "(single isomer, unassigned) [Compound 321]", "ED50": "≤ 30"}, {"smiles": "Cc1ccc(C(C)(C)N2CCC(CCc3ccc(F)s3)(CNS(=O)(=O)O)C2)cn1", "note": "(single isomer, unassigned) [Compound 322]", "ED50": "≤ 30"}, {"smiles": "CCOCC1(CCc2ccc(F)cc2)CCN(Cc2ccccc2)C1", "note": "(stereo in doubt) [Compound 4, (S)-1-benzyl-3-(ethoxymethyl)-3-(4-fluorophenethyl) pyrrolidine]", "ED50": "≤ 30"}]}, {"test_system": "male C57BL/6 mice", "experiment": "55° C. warm-water tail-flick test (antinociception)", "type": "in vivo", "conditions": "Mus musculus, sc, 0.5 h, compounds of Table III; s.c.; 30 min; 55° C. water; configuration tested as in Table IV; read-out: ED50 (mg/kg) at 30 min on C57BL/6 mice in Warm-water Tail-flick Test (same as Table II)", "how_it_was_run": "as §1", "units": {"ED50": "mg/kg"}, "values": [{"smiles": "CCOCC1(CCc2ccc(F)cc2)CCN(Cc2ccccc2)C1", "note": "(stereo in doubt) [Compound 4, (S)-1-benzyl-3-(ethoxymethyl)-3-(4-fluorophenethyl) pyrrolidine]", "ED50": "> 50"}, {"smiles": "CCOC[C@]1(CCc2ccccc2)CCN(C(C)(C)c2ccc(Br)cc2)C1", "note": "[Compound 5]", "ED50": "≤ 30"}]}, {"test_system": "male C57BL/6 mice", "experiment": "55° C. warm-water tail-flick test (antinociception)", "type": "in vivo", "conditions": "Mus musculus, sc, 0.5 h, compounds of Table V; s.c.; 30 min; 55° C. water; read-out: ED50 (mg/kg) at 30 min on C57BL/6 mice in Warm-water Tail-flick Test (same conditions as Table II)", "how_it_was_run": "as §1", "units": {"ED50": "mg/kg"}, "values": [{"smiles": "CCOCC1(CCc2ccc(F)cc2)CCN(Cc2ccccc2)C1", "note": "(stereo in doubt) [Compound 4, (S)-1-benzyl-3-(ethoxymethyl)-3-(4-fluorophenethyl) pyrrolidine]", "ED50": "≤ 30"}, {"smiles": "CCOCC1(CCc2ccccc2)CCN(C(C)(C)c2ccc(-c3cn[nH]n3)cc2)CC1", "note": "[Compound 5]", "ED50": "≤ 30"}]}, {"test_system": "male C57BL/6 mice", "experiment": "55° C. warm-water tail-flick test (antinociception)", "type": "in vivo", "conditions": "Mus musculus; half maximal effective dose in mice; using one of: warm water tail-flick test, spared nerve injury, chronic constriction injury, or Complete Freund's adjuvant induced inflammatory pain (not stated which per compound); read-out: Biological Activity (ED50)", "how_it_was_run": "as §1", "units": {"ED50": "mg/kg"}, "values": [{"smiles": "CC(C)(c1ccc(Cl)cc1)N1CC[C@@](CCc2ccc(S(C)(=O)=O)cc2)(C(O)C(F)(F)F)C1", "note": "(single isomer, unassigned) [Compound 222, (R or S)-1-((R)-1-(2-(4-chlorophenyl)propan-2-yl)-3-(4-(methylsulfonyl)phenethyl)pyrrolidin-3-yl)-2,2,2-trifluoroethan-1-ol]", "ED50": "> 50"}, {"smiles": "CC(C)(c1ccccn1)N1CC[C@](CCc2ccc(C#N)cc2)(C(O)C(F)(F)F)C1", "note": "(single isomer, unassigned) [Compound 223]", "ED50": "> 50"}, {"smiles": "Cc1ccnc(C)c1CN1CC[C@@](CCc2ccc(C#N)cc2)(C(O)C(F)(F)F)C1", "note": "(single isomer, unassigned) [Compound 227, 4-(2-((R)-1-((2,4-dimethylpyridin-3-yl)methyl)-3-((R or S)-2,2,2-trifluoro-1-hydroxyethyl)pyrrolidin-3-yl)ethyl) benzonitrile]", "ED50": "> 50"}, {"smiles": "CC(C)(c1ccc(F)cn1)N1CC[C@](CCc2ccc(C#N)cc2)(C(O)C(F)(F)F)C1", "note": "(single isomer, unassigned) [Compound 229, 4-(2-((S)-1-(2-(5-fluoropyridin-2-yl)propan-2-yl)-3-((R or S)-2,2,2-trifluoro-1-hydroxyethyl)pyrrolidin-3-yl)ethyl) benzonitrile]", "ED50": "> 50"}, {"smiles": "CCOCC1(CCc2ccc(F)cc2)CCN(Cc2ccccc2)C1", "note": "(stereo in doubt) [Compound 4, (S)-1-benzyl-3-(ethoxymethyl)-3-(4-fluorophenethyl) pyrrolidine]", "ED50": "> 50"}, {"smiles": "CC(C)(c1ccccn1)N1CC[C@@](CCc2ccc(C#N)cc2)(C(C)(C)O)C1", "note": "[(R)-4-(2-(3-(2-hydroxypropan-2-yl)-1-(2-(pyridin-2-yl)propan-2-yl)pyrrolidin-3-yl)ethyl) benzonitrile]", "ED50": "> 50"}, {"smiles": "CCOC[C@]1(CCc2ccc(F)cc2)CCN(Cc2ccc(OC)nc2)C1", "note": "[Compound 1, (R)-5-((3-(ethoxymethyl)-3-(4-fluorophenethyl)pyrrolidin-1-yl)methyl)-2-methoxypyridine]", "ED50": "> 50"}, {"smiles": "CCOC[C@]1(CCc2ccc(F)cc2)CCN(Cc2cnc(OC)cc2C#N)C1", "note": "[Compound 2, (R)-5-((3-(ethoxymethyl)-3-(4-fluorophenethyl)pyrrolidin-1-yl)methyl)-2-methoxy-isonicotino nitrile]", "ED50": "≤ 30"}, {"smiles": "CCOC[C@]1(CCc2ccc(C#N)cc2)CCN(Cc2cccnc2)C1", "note": "[Compound 3, (R)-4-(2-(3-(ethoxymethyl)-1-(pyridin-3-ylmethyl)pyrrolidin-3-yl)ethyl) benzonitrile]", "ED50": "≤ 30"}, {"smiles": "CCOC[C@]1(CCc2ccc(F)cc2)CCN(Cc2cccnc2C(N)=O)C1", "note": "[Compound 5]", "ED50": "> 50"}]}]}
